The source of these data is patent EP4781986A1, “PHARMACEUTICAL COMPOSITION HAVING IMPROVED PHARMACOKINETIC PROPERTIES” (Sichuan Purity Pharmaceutical Co., Ltd., priority 2023, dated 2025).

Common to all, as to assay type: in vitro ADME
A short description of data set [1]: stability test in liver microsomes (human). The method, then:
(§1) The stability of the compound of the present invention in liver microsomes of rat, monkey and human was determined. Tested compounds of the present invention were the compounds in Examples 6 and 8 , and a control drug was Zavegepant.
(§2) 3.2 An appropriate amount of liver microsome solution was transferred into a 1 mL 96-deep-well plate, added with a tested drug liquid (or a probe substrate solution), and pre-incubated in a thermal mixer at 37°C for 5 minutes. Two parts of mixed solutions were taken out from the system and added with 1×PBS to replace NADPH, and the mixed solutions were taken out at 0 and 60 minutes respectively, and added with methanol (containing an internal standard) to terminate the reaction. In the remaining mixed system, each well was added with NADPH to start the reaction. In the tested substance group, mixed solutions were taken out from the system at 0, 5, 15, 30, 45 and 60 minutes, and in the control group, mixed solutions were taken out from the system at 0, 30 and 60 minutes, and the mixed solutions were added methanol (containing an internal standard) to terminate the reaction. All samples of the terminated reaction were mixed evenly and centrifuged in a centrifuge at 3800 rpm for 15 minutes, and the supernatant was taken for LC-MS/MS analysis.
(§3) A peak area was determined by an extracted ion chromatogram. A slope value k was determined by linear regression of a remaining percentage of a parent drug relative to a natural logarithm of an incubation time curve. According to the slope, in-vitro half-life periods (t1/2) were respectively calculated, and in-vitro intrinsic clearance rates (CLint, represented by µL/min/mg protein) were calculated. Calculation formulas were as follows: t1/2 = ln2/k = 0.693/k; and CLint = 0.693/t1/2 /liver microsome protein concentration [formula]
A general note: Liver microsomes are a subcellular fraction often used to study metabolism.

For another data set, the system named is Plasma of human. Description: plasma protein binding rate test, equilibrium dialysis (human). The note with it: 1 µM, 37°C, 6 hours. Here is the method: (§4) Protein binding rates of the compound of the present invention in plasma of rat, monkey and human were determined by an equilibrium dialysis method. Tested compounds of the present invention were the compounds in Examples 6 and 8.
(§5) 3.1 A dry dialysis membrane was rinsed with ultrapure water for 2-3 times, and then soaked in a phosphate buffer for 1 hour for later use. Polytetrafluoroethylene module was soaked in 20% ethanol for 30 minutes, and then surface moisture was dried with dust-free paper for later use. The pretreated dialysis membrane was assembled into a dialysis plate according to the product specification, and one side (receptor compartment) of an osmotic membrane in each dialysis well was added with 100 µL of receptor fluid (100 mM phosphate buffer solution plus 0.002% Tween 80).
(§6) 3.2 The plasma was put into a centrifuge tube, a working solution of a tested substance was added into the plasma, wherein a final concentration was 1 µM, and the mixture was turned upside down and mixed evenly (this step was carried out in ice bath). 20 µL of drug-containing plasma each was taken, and was respectively transferred to a 96-well sample plate according to two parts in parallel, and stored in a refrigerator at -20°C as a T0 sample.
(§7) 3.3 Another 100 µL of the above drug-containing plasma was transferred to the other side (sample compartment) of the membrane in the dialysis device according to two parts in parallel, and incubated under vibration at a constant temperature of 37°C for 6 hours. […]
(§8) A plasma protein binding rate and a recovery rate of the compound in plasma were calculated by the following formulas: dissociation percentage (%) = CB /CA; [formula] plasma protein binding rate (fb%) = 1−dissociation percentage (%); [formula] recovery rate (%) = (CB+CA)/CT0 [formula] wherein CB was a concentration of the compound in the receptor fluid after equilibrium dialysis; CA was a concentration of the compound in the drug-containing plasma after equilibrium dialysis; and CT0 was an initial concentration of the compound in plasma.
(In equilibrium dialysis free small molecules cross a membrane that holds back macromolecules.)

Data set [2] can be described thus: stability test in liver microsomes (rat). The method, then: as §1, §2, §3
A further data set relates to Plasma of SD rat. Description: plasma protein binding rate test, equilibrium dialysis (rat). The settings on record: 1 µM, 37°C, 6 hours. The method, then: as §4, §5, §6, §7, §8
For data set [3], the system named is Plasma of cynomolgus monkey. Description: plasma protein binding rate test, equilibrium dialysis (monkey). The note with it: 1 µM, 37°C, 6 hours. The method, then:
as §4, §5, §6, §7, §8

The nature of data set [4]: stability test in liver microsomes (monkey). Here is the method: as §1, §2, §3

Molecules are shown by their SMILES.

One may read the half-life as the time needed for the level to fall by half in the phase considered. One may read the microsomal CLint as the capacity of the preparation to metabolise the compound, expressed as a volume cleared per time.

Turning to `[2H]C([2H])([2H])N1CCC(N2CCN(C(=O)[C@@H](Cc3cc(C)c4[nH]ncc4c3)NC(=O)N3CCC(c4cc5c([nH]c4=O)SCC5)CC3)CC2)CC1` [Example 29, (R)-N-(3-(7-methyl-1H-indazole-5-yl)-1-(4-(1-(methyl-d3)piperidine-4-yl)piperazine-1-yl)-1-oxopropan-2-yl)-4-(6-oxo-2,3,6,7-tetrahydrothieno[2,3-b]pyridine-5-yl)piperidine-1-formamide], the half-life at 1 µM in data set [1] (Human liver microsomes 0.5 mg/mL, 1.0 µM) is greater than 2 h; in data set [2] (Rat liver microsomes 0.5 mg/mL, 1.0 µM), greater than 2 h; in data set [4] (Monkey liver microsomes 0.5 mg/mL, 1.0 µM), greater than 2 h. In addition, the “% remaining (60 min)” value was found to be 115% in data set [1] (Human liver microsomes, 60 min); 105% in data set [2] (Rat liver microsomes, 60 min); 98.9% in data set [4] (Monkey liver microsomes, 60 min). In addition, the “fb (%)” value in the data set on Plasma of human stood at 50.2%; in the data set with Plasma of SD rat, 64.3%; in data set [3] it was 56.1%. The microsomal CLint at 1 µM in data set [4] (Monkey liver microsomes) was 1.6 µL/min/mg.
